Values belong to the compound of their own block, whether it stands above or below them.
Legend:
Assay in all cases: Competitive isoTOP-ABPP, cell lysates;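 on isoTOP-ABPP reactivity profile ratio, P63244 C182: Heavy/light ratio DMSO over fragment-treated so higher means more cysteine engagement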
Assay type in all cases: binding
GNB2L1 C182 (P63244) = GNB2L1 C182 (P63244) (Homo sapiens, UniProt P63244); details: for isoTOP-ABPP reactivity ratio, P63244_C182 / isoTOP-ABPP reactivity profile ratio, P63244_C182: 500 μm;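 on isoTOP-ABPP reactivity profile ratio, P63244 C182: Heavy/light ratio DMSO over fragment-treated so higher means more cysteine engagement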
IDH2 C308 (P48735) = target: T1, IDH2 C308 (P48735) (Homo sapiens, UniProt P48735); details: for isoTOP-ABPP reactivity profile ratio, P48735_C308: 500 μm, in-vitro_ramos_231
T1 sequence (P48735 40-452): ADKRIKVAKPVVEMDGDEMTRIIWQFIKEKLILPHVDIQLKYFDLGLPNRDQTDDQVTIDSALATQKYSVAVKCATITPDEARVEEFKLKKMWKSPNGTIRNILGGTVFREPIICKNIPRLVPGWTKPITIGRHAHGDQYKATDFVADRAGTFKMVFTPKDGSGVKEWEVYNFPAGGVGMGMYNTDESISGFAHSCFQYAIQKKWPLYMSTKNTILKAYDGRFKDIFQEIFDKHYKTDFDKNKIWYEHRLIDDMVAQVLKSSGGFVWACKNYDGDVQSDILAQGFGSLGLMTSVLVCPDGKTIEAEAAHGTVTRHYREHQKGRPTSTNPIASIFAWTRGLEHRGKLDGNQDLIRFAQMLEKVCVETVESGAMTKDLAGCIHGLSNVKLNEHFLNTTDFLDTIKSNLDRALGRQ

MGMT C150 (P16455) = target: T2, MGMT C150 (P16455) (Homo sapiens, UniProt P16455); details: for isoTOP-ABPP reactivity ratio, P16455_C150 / isoTOP-ABPP reactivity profile ratio, P16455_C150: 500 μm, in-vitro_ramos
T2 sequence (P16455 1-207): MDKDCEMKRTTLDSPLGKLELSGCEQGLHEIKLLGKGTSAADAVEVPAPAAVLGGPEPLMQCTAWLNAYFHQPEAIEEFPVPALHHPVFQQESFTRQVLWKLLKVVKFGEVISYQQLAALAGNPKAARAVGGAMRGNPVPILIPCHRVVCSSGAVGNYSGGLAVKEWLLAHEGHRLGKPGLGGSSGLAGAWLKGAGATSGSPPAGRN

PDE12 C108 (Q6L8Q7) = target: T3, PDE12 C108 (Q6L8Q7) (Homo sapiens, UniProt Q6L8Q7); details: 500 μm
T3 sequence (Q6L8Q7 43-609): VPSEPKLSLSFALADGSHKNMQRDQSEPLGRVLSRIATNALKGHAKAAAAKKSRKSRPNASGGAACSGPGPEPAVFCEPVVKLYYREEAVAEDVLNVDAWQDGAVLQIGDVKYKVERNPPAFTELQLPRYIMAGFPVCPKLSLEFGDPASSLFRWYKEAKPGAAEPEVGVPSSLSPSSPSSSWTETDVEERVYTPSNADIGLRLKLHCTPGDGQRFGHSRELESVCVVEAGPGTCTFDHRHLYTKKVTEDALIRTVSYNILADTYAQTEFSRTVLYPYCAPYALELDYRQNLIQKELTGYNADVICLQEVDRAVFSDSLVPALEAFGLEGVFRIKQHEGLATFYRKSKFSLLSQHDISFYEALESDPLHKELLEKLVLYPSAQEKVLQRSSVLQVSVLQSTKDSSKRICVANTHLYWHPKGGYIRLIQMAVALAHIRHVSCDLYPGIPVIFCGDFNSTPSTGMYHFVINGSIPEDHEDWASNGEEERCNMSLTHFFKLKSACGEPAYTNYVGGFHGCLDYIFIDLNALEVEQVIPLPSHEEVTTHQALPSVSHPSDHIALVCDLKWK

USP22 C171 (Q9UPT9) = target: T4, USP22 C171 (Q9UPT9) (Homo sapiens, UniProt Q9UPT9); details: 500 μm
T4 sequence (Q9UPT9 1-525): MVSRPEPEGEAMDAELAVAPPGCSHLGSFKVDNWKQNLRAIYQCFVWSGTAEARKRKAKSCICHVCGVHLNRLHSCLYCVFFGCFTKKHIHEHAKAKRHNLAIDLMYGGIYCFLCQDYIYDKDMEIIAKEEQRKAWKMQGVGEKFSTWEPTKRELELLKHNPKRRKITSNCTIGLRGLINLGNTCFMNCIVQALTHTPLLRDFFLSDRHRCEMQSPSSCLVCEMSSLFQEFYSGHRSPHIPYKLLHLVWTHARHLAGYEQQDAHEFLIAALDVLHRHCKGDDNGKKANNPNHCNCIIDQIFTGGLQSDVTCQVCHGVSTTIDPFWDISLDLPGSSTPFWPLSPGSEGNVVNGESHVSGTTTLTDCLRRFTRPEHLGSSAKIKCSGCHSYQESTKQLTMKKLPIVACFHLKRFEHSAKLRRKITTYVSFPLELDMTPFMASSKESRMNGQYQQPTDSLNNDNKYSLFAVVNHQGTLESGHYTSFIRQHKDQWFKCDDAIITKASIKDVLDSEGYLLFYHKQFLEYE

Structure (SMILES): CC(C)(C)c1cc(NC(=O)CCl)on1 [compound 32]
isoTOP-ABPP reactivity ratio, P63244_C182 (GNB2L1 C182 (P63244); in-vitro_ramos_231): 1.9 | isoTOP-ABPP reactivity ratio, P16455_C150 (MGMT C150 (P16455)): 20.0 | isoTOP-ABPP reactivity ratio, Q6L8Q7_C108 (PDE12 C108 (Q6L8Q7); in-vitro_ramos): 1.9 | isoTOP-ABPP reactivity ratio, Q6L8Q7_C108 (PDE12 C108 (Q6L8Q7); in-vitro_ramos_231): 2.5 | isoTOP-ABPP reactivity ratio, Q9UPT9_C171 (USP22 C171 (Q9UPT9); in-vitro_ramos): 9.3

Structure (SMILES): O=C(CCl)N(Cc1ccc(F)cc1)C12CC3CC(CC(C3)C1)C2 [compound 34]
isoTOP-ABPP reactivity ratio, P16455_C150 (MGMT C150 (P16455)): 1.4

Structure (SMILES): O=C(CCl)Nc1ccccc1C1CCCCCC1 [compound 35]
isoTOP-ABPP reactivity ratio, P63244_C182 (GNB2L1 C182 (P63244); in-vitro_ramos): 0.9 | isoTOP-ABPP reactivity ratio, P63244_C182 (GNB2L1 C182 (P63244); in-vitro_ramos_231): 0.9 | isoTOP-ABPP reactivity ratio, P16455_C150 (MGMT C150 (P16455)): 1.3 | isoTOP-ABPP reactivity ratio, Q6L8Q7_C108 (PDE12 C108 (Q6L8Q7); in-vitro_ramos_231): 0.8 | isoTOP-ABPP reactivity ratio, Q9UPT9_C171 (USP22 C171 (Q9UPT9); in-vitro_ramos): 1.5

Structure (SMILES): C=CC(=O)N1CCC(c2noc3ccc(F)cc23)CC1 [compound 37]
isoTOP-ABPP reactivity ratio, P63244_C182 (GNB2L1 C182 (P63244); in-vitro_ramos): 0.9 | isoTOP-ABPP reactivity ratio, P16455_C150 (MGMT C150 (P16455)): 1.0

Structure (SMILES): C=CC(=O)Nc1cc(C)c(Br)cc1C [compound 40]
isoTOP-ABPP reactivity ratio, P63244_C182 (GNB2L1 C182 (P63244); in-vitro_ramos): 0.6 | isoTOP-ABPP reactivity ratio, P63244_C182 (GNB2L1 C182 (P63244); in-vitro_ramos_231): 1.0 | isoTOP-ABPP reactivity ratio, P16455_C150 (MGMT C150 (P16455)): 1.9 | isoTOP-ABPP reactivity ratio, Q6L8Q7_C108 (PDE12 C108 (Q6L8Q7); in-vitro_ramos_231): 0.8

Structure (SMILES): Cc1ccc(C=C(C#N)C(=O)NCCN2CCOCC2)cc1 [compound 41]
isoTOP-ABPP reactivity ratio, P63244_C182 (GNB2L1 C182 (P63244); in-vitro_ramos): 4.7 | isoTOP-ABPP reactivity ratio, P16455_C150 (MGMT C150 (P16455)): 0.9 | isoTOP-ABPP reactivity ratio, Q6L8Q7_C108 (PDE12 C108 (Q6L8Q7); in-vitro_ramos_231): 1.3 | isoTOP-ABPP reactivity ratio, Q9UPT9_C171 (USP22 C171 (Q9UPT9); in-vitro_ramos): 1.4 | isoTOP-ABPP reactivity ratio, Q9UPT9_C171 (USP22 C171 (Q9UPT9); in-vitro_ramos_231): 3.0

Structure (SMILES): CC1CCc2ccccc2N1C(=O)CCl (centres unmarked) [compound 45]
isoTOP-ABPP reactivity profile ratio, P63244_C182 (GNB2L1 C182 (P63244); in-vitro_ramos_231): 0.9 | isoTOP-ABPP reactivity profile ratio, P48735_C308 (IDH2 C308 (P48735)): 1.0

Structure (SMILES): O=C(CCl)Nc1cccc2ncccc12 [compound 51]
isoTOP-ABPP reactivity profile ratio, P63244_C182 (GNB2L1 C182 (P63244); in-vitro_ramos): 0.9 | isoTOP-ABPP reactivity profile ratio, P63244_C182 (GNB2L1 C182 (P63244); in-vitro_ramos_231): 0.7

Structure (SMILES): O=C(CCl)Nc1ccc(-c2ccccc2)cc1 [compound 52]
isoTOP-ABPP reactivity profile ratio, P63244_C182 (GNB2L1 C182 (P63244); in-vitro_ramos_231): 1.0 | isoTOP-ABPP reactivity profile ratio, P48735_C308 (IDH2 C308 (P48735)): 1.1 | isoTOP-ABPP reactivity profile ratio, P16455_C150 (MGMT C150 (P16455)): 2.2 | isoTOP-ABPP reactivity profile ratio, Q6L8Q7_C108 (PDE12 C108 (Q6L8Q7); in-vitro_ramos): 6.8 | isoTOP-ABPP reactivity profile ratio, Q6L8Q7_C108 (PDE12 C108 (Q6L8Q7); in-vitro_ramos_231): 1.4

Structure (SMILES): C=CC(=O)N1CCC(Cc2ccccc2)CC1 [compound 53]
isoTOP-ABPP reactivity profile ratio, P63244_C182 (GNB2L1 C182 (P63244); in-vitro_ramos): 0.8 | isoTOP-ABPP reactivity profile ratio, P63244_C182 (GNB2L1 C182 (P63244); in-vitro_ramos_231): 0.9 | isoTOP-ABPP reactivity profile ratio, P48735_C308 (IDH2 C308 (P48735)): 0.5 | isoTOP-ABPP reactivity profile ratio, P16455_C150 (MGMT C150 (P16455)): 1.1 | isoTOP-ABPP reactivity profile ratio, Q6L8Q7_C108 (PDE12 C108 (Q6L8Q7); in-vitro_ramos): 1.1

Continued, values first:

isoTOP-ABPP ratio (reactivity profile), P63244_C182 (GNB2L1 C182 (P63244); 500 μm in-vitro ramos): 1.2 | isoTOP-ABPP ratio (reactivity profile), P63244_C182 (GNB2L1 C182 (P63244); 500 μm in-vitro ramos_231): 1.3 | isoTOP-ABPP ratio (reactivity profile), P48735_C308 (IDH2 C308 (P48735); 500 μm in-vitro ramos_231): 1.0 | isoTOP-ABPP ratio (reactivity profile), P16455_C150 (MGMT C150 (P16455); 500 μm in-vitro ramos): 1.3
Structure (SMILES): O=C(CCl)N1CCN(CC(=O)N2CCOCC2)CC1 [compound 29]

isoTOP-ABPP reactivity profile ratio, P63244_C182 (GNB2L1 C182 (P63244); in-vitro_ramos): 0.8 | isoTOP-ABPP reactivity profile ratio, P16455_C150 (MGMT C150 (P16455)): 0.8 | isoTOP-ABPP reactivity profile ratio, Q9UPT9_C171 (USP22 C171 (Q9UPT9); in-vitro_ramos): 1.0
Structure (SMILES): N#CC(=Cc1ccc(-c2ccccc2Cl)o1)C(N)=O [compound 42]

isoTOP-ABPP reactivity profile ratio, P63244_C182 (GNB2L1 C182 (P63244); in-vitro_ramos): 0.9 | isoTOP-ABPP reactivity profile ratio, P63244_C182 (GNB2L1 C182 (P63244); in-vitro_ramos_231): 0.9 | isoTOP-ABPP reactivity profile ratio, P48735_C308 (IDH2 C308 (P48735)): 0.8 | isoTOP-ABPP reactivity profile ratio, P16455_C150 (MGMT C150 (P16455)): 20.0 | isoTOP-ABPP reactivity profile ratio, Q9UPT9_C171 (USP22 C171 (Q9UPT9); in-vitro_ramos): 4.5
Structure (SMILES): COc1cc(NC(=O)CCl)cc(OC)c1 [compound 43]

isoTOP-ABPP reactivity profile ratio, P63244_C182 (GNB2L1 C182 (P63244); in-vitro_ramos_231): 0.8 | isoTOP-ABPP reactivity profile ratio, P48735_C308 (IDH2 C308 (P48735)): 0.2
Structure (SMILES): C=CC(=O)N(c1ccccc1)C1CCCCC1 [compound 46]

isoTOP-ABPP reactivity profile ratio, P63244_C182 (GNB2L1 C182 (P63244); in-vitro_ramos_231): 0.8 | isoTOP-ABPP reactivity profile ratio, P48735_C308 (IDH2 C308 (P48735)): 2.2 | isoTOP-ABPP reactivity profile ratio, Q6L8Q7_C108 (PDE12 C108 (Q6L8Q7); in-vitro_ramos_231): 1.8
Structure (SMILES): O=C(CCl)N1CCc2cc(Br)ccc21 [compound 50]
